We go through 2 compounds from patent US12138240B2, “Treatment of cardiac dysfunction” (priority 2017, dated 2024).

The nature of data set [1]: phase I single ascending dose study, plasma concentrations of ANAVEX 2-73 and metabolite ANAVEX 19-144. Format: in vivo, human. The conditions noted are these: for plasma concentration of the labelled analyte: 1 mg ANAVEX 2-73 oral dose; for concentration at 24 h / Cmax: human, plasma; for concentration at 24 h: one subject, 40 mg ANAVEX 2-73 oral, 24 hr time point, read-out: plasma concentration of the labelled analyte; for Cmax: male. On the procedure:
(§1) Seventeen subjects contributed ECG data to the analysis dataset. The study was randomized single dose escalating phase I first-in-human study designed to investigate the safety and tolerability, and pharmacokinetics of ascending oral doses of ANAVEX 2-73 in male healthy subjects. It was double-blind and placebo-controlled within each dosage step—a two cohort study with alternating single dose escalation performed in male healthy subjects. Subjects were administered 10, 30, 40, 50, or 60 mg of ANAVEX 2-73 orally with a 4-week washout between doses. Sampling for drug and ECG was from predose to 48 hr. Note that Placebo-adjusted (delta-delta) change in QTcF is represented as ΔΔQTcF.
Blood samples for ANAVEX 2-73 and metabolite ANAVEX 19-144 plasma concentration determination were drawn on Day 1 at time zero, T0, (before drug administration), T+0.25 h (15 min), T+0.5 h (30 min), T+1 h, T+1.5 h, T+2 h, T+3 h, T+3.5 h, T+4 h, T+6 h, T+8 h and T+12 h, on Day 2 at T+24 h and T+36 h, and on Day 3 at T+48 h.
The PK variables employed in the analysis were the patient-, regimen- and time-specific observed plasma concentration of ANAVEX 2-73 and ANAVEX 19-144.
The dataset comprised observed ANAVEX 2-73 and ANAVEX 19-144 plasma concentrations that were direct matches in time with QT interval measurements. The analysis variable of interest was the QT interval duration corrected for RR interval duration according to Fridericia's formula (i.e., QTcF), HR, and change from baseline QT interval duration corrected for RR interval duration according to Fridericia's formula (ΔQTcF or dQTcF). Baseline is defined as the mean of any and all values immediately obtained prior to ANAVEX 2-73 administration.

The subject of data set [2] is male healthy subjects. The experiment in a line: linear exposure-heart rate model (NONMEM). Also noted: species or system human. From the text:
(§2) Data analysis proceeded from data structure analysis in S-PLUS to linear/nonlinear mixed effects modeling in NONMEM to develop the exposure-QTc relationship for ANAVEX 2-73 and its active metabolite ANAVEX 19-144. The correction method used for QT interval was the Fridericia's correction. The bootstrap was used to determine the reliability/stability of the exposure-QTc models developed. This was necessary to determine if the modeling results obtained with data from the 17 subjects would be applicable to the population at large, given the sample size. Exposure-heart rate and exposure-change from baseline QTc, and exposure-placebo corrected QTc relationship models were developed for the elucidation of any exposure-QTc relationship.
Concentration-QTc modeling was performed with the software NONMEM v7.3 (Icon Development Solutions, Ellicott City, MD) and graphical analysis, diagnostics plots, and supporting analyses using S Plus v8.2 (TIBCO Software, Boston, MA) and the R package.
Further modeling characterizes the exposure-heart rate relationship. […] for the model were ANAVEX 2-73 and ANAVEX 19-144 concentrations, and time. The baseline heart rate was also estimated. The best model developed to explain the exposure-heart rate relationship included all three variables. Again, ANAVEX 2-73 concentration by itself was not initially biologically QT active, but became active as metabolized to A19-144 in the model. At about 4 to 8 hours post administration A19-144 peaks and surpasses A2-73 at about 8 hours post administration. […] The metabolism of A2-73 to A19-144 modifies this effect. […] It is important to note the upward and negative inflexions in the parent compound and the active metabolite in the final model, respectively, are not indicative of model misspecification but are due to the sensitivity of smoothing loess regression (red line in FIG. 17) to outlying observations in the y-axis. The final model is given below: HRij=56.5−0.106*Parent+0.369*Metabolite+0.153*Time where HRij is subject specific heart rate, Parent refers to ANAVEX 2-73, and Metabolite is for ANAVEX 19-144.
Observed and unlikely to be observed concentrations of the parent drug and metabolite are used to predict heart rate, given the parameter estimates obtained with the exposure-heart rate model developed. […] Thus, the heart rate upon treatment with ANAVEX 2-73 is predicted to be below 75 beats/min.

Data set [3] relates to male healthy subjects. Also noted: species or system human. The conditions noted are these: in vivo. On the procedure:
as §1
Subjects provided time-matched exposure-ECG data for analysis. For the exposure-QTc analysis, data obtained after the administration of doses greater than 1 mg were used. […] However, ECG data from the administration of the 1 mg dose were included in the categorical and outlier analysis.
as §2
In addition, categorical summaries of the ECG data were generated using the ICH E14 guidance-defined categories of QTc interval duration as well as change from baseline.
A protocol presented herein was a single ascending dose (SAD) phase I first-in-human study designed to investigate the safety and tolerability, and pharmacokinetics of ascending oral doses of ANAVEX 2-73 in male healthy subjects. The study was a randomized, double-blind, and placebo-controlled within each dosage step. It was a two cohort study with alternating single dose escalation performed in male healthy subjects. The subjects were divided into two cohorts of 8 subjects each—Cohort A (n=8), and Cohort B (n=8). However, 17 evaluable subjects were studied in a 8:9 ratio in cohorts A and B, respectively. The study comprised repeated treatment periods with at least 4 weeks of intermediary washout periods.
Per study protocol, triplicate 12-lead ECGs safety recordings were obtained at the following times: Day 1 at T0/pre-dose (3 baseline ECGs), T+0.25 h (15 min), T+0.5 h (30 min), T+1 h, T+2 h, T+4 h, T+8 h and T+12 h, on Day 2 at T+24 h, T+36 h, and on Day 3 at T+48 h. ECGs were recorded at each PK sampling time (i.e., 0.25, 0.5, 1, 2, 3, 4, 6, 8, 24, 36, and 48 hours after initiation of treatment). Thus, ECG recordings were time-matched with PK sampling.
ECG metrics evaluated included the heart rate (HR), the duration of QT interval, and the heart rate-corrected QT interval according to Fridericia's formula (QTcF). Change of QTcF from baseline (dQTcF), and placebo corrected QTcF (ΔΔQTcF) were generated from the data and used for the analysis.
Baseline ECG was defined as pre-dose baseline on each dosing occasion. Given the four weeks washout between dosing, the pre-dose baseline ECG was used as the baseline ECG for the particular dose/dosing occasion. A change from baseline variable for QTc interval (ΔQTcF) was calculated using pre-dose baseline.
ΔΔQTcF data was a single dose ascending study. As such not all subjects were administered placebo in each of the study periods. Only nine subjects were administered placebo in the course of the study. Consequently, it was not possible to make subject specific placebo correction. […]

“Also recorded” adds a separate entry of the source. Like-named read-outs stand apart in the source and are kept apart here.

As for `CN(C)CC1CCOC1(c1ccccc1)c1ccccc1.Cl` (centres unmarked) [ANAVEX 2-73, 1-(2,2-diphenyltetrahydrofuran-3-yl)-N,N-dimethylmethanamine hydrochloride], in data set [1], the “plasma concentration of the labelled analyte” value is on record as “not quantifiable at most of the sampling times beyond two to four hours after dosing” and the concentration at 24 h stood at 2.23 ng/mL. Moreover, the Cmax in data set [1] (oral, footnote a, read-out: ANAVEX 2-73 Concentration, observed Cmax from the QTc analysis dataset) was 46.2 ng/mL. In addition, in the data set with male healthy subjects [2], the “Slope on parent, exposure-heart rate model estimate” value is recorded as −0.106 beats/min/ng/mL and the “initial effects on heart rate” value is given as “opposite initial effects on heart rate”. For the same compound, in the data set with male healthy subjects [3], the QT interval prolongation entry is “does not prolong QT interval”, the “effect on dQTcF (exposure-dQTcF characterization)” value was “did not show any effect”, the “graphical relationship of paired concentrations with QTcF measurements” value is given as “minimal positive trend” and the “relationship with ΔΔQTcF (placebo-adjusted change in QTcF)” value is “no relationship”. Further, the “dQTcF (change in QTcF from baseline), any subject” value in the data set with male healthy subjects [3] (male, human) is reported as at most 30 ms.
With `CNCC1CCOC1(c1ccccc1)c1ccccc1.Cl` (centres unmarked) [ANAVEX 19-144, 1-(2,2-diphenyltetrahydrofuran-3-yl)-N-methylmethanamine hydrochloride], the “plasma concentration of the labelled analyte” value in data set [1] (hydrochloride) is “below the limit of detection; also recorded: not quantifiable”. The “ANAVEX 19-144 Concentration, observed Cmax from the QTc analysis dataset” value in data set [1] (footnote a, after oral ANAVEX 2-73, hydrochloride) is 23.96 ^a ng/mL. In addition, the concentration at 24 h in data set [1] turned out to be 3.33 ng/mL. For the same compound, the Cmax in data set [1] (footnote a, after oral ANAVEX 2-73, read-out: ANAVEX 19-144 Concentration, observed Cmax from the QTc analysis dataset) was 24 ng/mL. Further, in the data set with male healthy subjects [2], the “Slope on metabolite, exposure-heart rate model estimate” value is reported as 0.369 beats/min/ng/mL and the “initial effects on heart rate” value is “opposite initial effects on heart rate”. Further, in the data set with male healthy subjects [3], the anti-arrhythmic activity result is “anti-arrhythmic”, the “effect on dQTcF (exposure-dQTcF characterization)” value is “did not show any effect”, the “graphical relationship of paired concentrations with QTcF measurements” value is given as “slight minimal upward trend from baseline followed by a slight negative trend” and the “relationship with ΔΔQTcF (placebo-adjusted change in QTcF)” value was “no relationship”.
